Data set [1] can be described thus: Stability in human liver microsomes assessed as parent compound remaining at 1 uM incubated for 10 mins. As to conditions: read-out: Stability. Format: ADME, Microsome. (Liver microsomes are a subcellular fraction often used to study metabolism.)
A short description of data set [2]: Stability in mouse liver microsomes assessed as parent compound remaining at 1 uM incubated for 10 mins. Format: ADME, Microsome. As to conditions: for remaining at 10 min, 1 µM: liver microsomes, read-out: Stability.
A short description of data set [3]: Stability in dog liver microsomes assessed as parent compound remaining at 1 uM incubated for 10 mins. Format: ADME, Canis lupus familiaris, Microsome. Conditions: for remaining at 10 min, 1 µM: liver microsomes, read-out: Stability.
The nature of data set [4]: Stability in rat liver microsomes assessed as parent compound remaining at 1 uM incubated for 10 mins. Format: ADME, Microsome. As to conditions: read-out: Stability.
The next data set deals with Glucagon receptor (Homo sapiens, UniProt P47871). Kind of data set: Potency index, ratio of Ki of 3-[[4-[(1R)-1-[5-[2-Chloro4-(trifluoromethyl)phenyl]indazol-1-yl]-3-methyl-butyl]benzoyl]amino]propanoic acid to Ki of compound for human full length GCGR transfected in HEK293 cells assessed as reduction in glucagon-induced cAMP response by LANCE TR-FRET assay. Format: functional, cell-based.
Sequence of Glucagon receptor (P47871 whole entry): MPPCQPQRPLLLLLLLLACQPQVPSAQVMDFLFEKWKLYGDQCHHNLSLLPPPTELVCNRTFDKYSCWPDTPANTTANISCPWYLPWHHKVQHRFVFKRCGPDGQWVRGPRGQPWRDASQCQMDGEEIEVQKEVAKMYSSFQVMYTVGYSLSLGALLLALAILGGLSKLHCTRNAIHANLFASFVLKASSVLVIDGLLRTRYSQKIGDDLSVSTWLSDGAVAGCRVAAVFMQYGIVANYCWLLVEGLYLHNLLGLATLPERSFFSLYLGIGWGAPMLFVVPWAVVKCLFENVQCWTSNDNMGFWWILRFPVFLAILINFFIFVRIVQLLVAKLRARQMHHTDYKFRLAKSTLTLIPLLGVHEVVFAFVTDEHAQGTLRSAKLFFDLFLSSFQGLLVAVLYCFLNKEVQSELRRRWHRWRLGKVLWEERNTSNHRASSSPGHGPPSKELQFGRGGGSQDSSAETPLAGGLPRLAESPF

The nature of data set [5]: Volume of distribution at steady state in C57 mouse at 5 mg/kg, iv or 20 mg/kg, po. Format: ADME, organism-based. Conditions: in vivo, read-out: Vdss.
Data set [6] concerns Canis familiaris. Kind of data set: Antidiabetic activity in Beagle dog assessed as reduction in blood glucose AUC at 10 mg/kg, po administered via gavage as single dose 90 mins prior to glucagon challenge by glucometer analysis. As to conditions: Canis lupus familiaris. Format: functional, organism-based.
A short description of data set [7]: AUClast in C57 mouse at 5 mg/kg, iv or 20 mg/kg, po. Format: ADME, organism-based. Conditions: in vivo.
Data set [8] in a line: AUClast in dog at 2 mg/kg, iv or 10 mg/kg, po. Format: ADME, organism-based, Canis lupus familiaris. Conditions: in vivo.
A short description of data set [9]: Cmax in C57 mouse at 5 mg/kg, iv or 20 mg/kg, po. Format: ADME, organism-based. As to conditions: in vivo.
A short description of data set [10]: Volume of distribution at steady state in dog at 2 mg/kg, iv or 10 mg/kg, po. Format: ADME, organism-based, Canis lupus familiaris. Conditions: in vivo, read-out: Vdss.
The target in data set [11] is T1, Cytochrome P450 3A4 (Homo sapiens, UniProt P08684). Description: Inhibition of CYP3A4 (unknown origin) using testosterone as substrate. Format: ADME.
T1 sequence (P08684 whole entry): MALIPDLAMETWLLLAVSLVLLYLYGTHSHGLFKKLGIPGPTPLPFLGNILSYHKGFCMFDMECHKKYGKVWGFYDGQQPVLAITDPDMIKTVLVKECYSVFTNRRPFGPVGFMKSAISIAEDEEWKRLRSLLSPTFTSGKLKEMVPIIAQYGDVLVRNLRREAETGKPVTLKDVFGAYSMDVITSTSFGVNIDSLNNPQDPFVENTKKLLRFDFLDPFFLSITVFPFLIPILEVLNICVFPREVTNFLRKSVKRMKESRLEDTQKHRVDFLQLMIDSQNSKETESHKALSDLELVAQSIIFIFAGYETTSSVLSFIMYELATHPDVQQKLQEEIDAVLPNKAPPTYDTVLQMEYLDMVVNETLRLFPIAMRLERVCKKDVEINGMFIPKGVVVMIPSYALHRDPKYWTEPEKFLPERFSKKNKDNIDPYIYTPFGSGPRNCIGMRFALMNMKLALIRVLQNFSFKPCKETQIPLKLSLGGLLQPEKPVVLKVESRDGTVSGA
The nature of data set [12]: Half life in dog at 2 mg/kg, iv. Format: ADME, organism-based, Canis lupus familiaris. As to conditions: in vivo.
The target in another data set is T2, Cytochrome P450 1A2 (Homo sapiens, UniProt P05177).
T2 sequence (P05177 whole entry): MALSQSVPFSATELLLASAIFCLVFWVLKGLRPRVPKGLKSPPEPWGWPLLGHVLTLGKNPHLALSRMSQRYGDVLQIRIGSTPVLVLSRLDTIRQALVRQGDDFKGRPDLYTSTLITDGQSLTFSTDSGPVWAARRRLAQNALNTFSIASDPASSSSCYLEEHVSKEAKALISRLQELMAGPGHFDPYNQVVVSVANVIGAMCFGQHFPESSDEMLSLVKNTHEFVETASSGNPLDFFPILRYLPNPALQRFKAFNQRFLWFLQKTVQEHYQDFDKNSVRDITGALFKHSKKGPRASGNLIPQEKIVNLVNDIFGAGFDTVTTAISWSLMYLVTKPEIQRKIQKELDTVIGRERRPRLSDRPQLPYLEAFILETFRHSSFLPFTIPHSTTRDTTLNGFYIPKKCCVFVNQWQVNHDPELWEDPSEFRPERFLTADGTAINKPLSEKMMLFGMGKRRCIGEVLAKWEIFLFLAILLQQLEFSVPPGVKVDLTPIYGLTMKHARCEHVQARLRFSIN
Kind of data set: Inhibition of CYP1A2 (unknown origin) using phenacetin as substrate. Format: ADME.

Data set [13] in a line: Clearance in dog at 2 mg/kg, iv or 10 mg/kg, po. Format: ADME, organism-based, Canis lupus familiaris. Conditions: in vivo.
The target of a further data set is Cytochrome P450 2C19 (Homo sapiens, UniProt P33261). Description: Inhibition of CYP2C19 (unknown origin) using S-Mephenytoin as substrate. Format: ADME.
Sequence of Cytochrome P450 2C19 (P33261 whole entry): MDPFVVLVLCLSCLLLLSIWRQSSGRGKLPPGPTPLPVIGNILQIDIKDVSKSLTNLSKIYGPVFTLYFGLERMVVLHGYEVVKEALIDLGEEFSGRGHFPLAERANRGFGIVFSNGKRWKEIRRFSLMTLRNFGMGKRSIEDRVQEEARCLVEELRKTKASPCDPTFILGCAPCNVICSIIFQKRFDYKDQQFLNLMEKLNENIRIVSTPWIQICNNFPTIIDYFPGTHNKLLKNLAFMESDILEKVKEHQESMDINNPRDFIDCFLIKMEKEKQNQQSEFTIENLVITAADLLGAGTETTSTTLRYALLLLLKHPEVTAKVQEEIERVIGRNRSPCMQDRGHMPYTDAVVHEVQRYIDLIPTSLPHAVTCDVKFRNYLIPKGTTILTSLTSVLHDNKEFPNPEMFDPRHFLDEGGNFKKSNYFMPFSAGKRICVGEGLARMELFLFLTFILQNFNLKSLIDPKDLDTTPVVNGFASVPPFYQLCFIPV
The next data set concerns the target Cytochrome P450 2C9 (Homo sapiens, UniProt P11712). Kind of data set: Inhibition of CYP2C9 (unknown origin) using tolbutamide as substrate. Format: ADME.
Data set [14] is described as follows: AUClast in Sprague-Dawley rat at 2 mg/kg, iv or 10 mg/kg, po. Format: ADME, organism-based. As to conditions: in vivo.
A short description of data set [15]: Half life in C57 mouse at 5 mg/kg, iv. As to conditions: in vivo. Format: ADME, organism-based.
Data set [16] in a line: Oral bioavailability in C57 mouse at 20 mg/kg. Format: ADME, organism-based. As to conditions: in vivo.
Data set [17] is described as follows: Oral bioavailability in dog at 10 mg/kg. Format: ADME, organism-based, Canis lupus familiaris. Conditions: in vivo.
Data set [18] is described as follows: Cmax in Sprague-Dawley rat at 2 mg/kg, iv or 10 mg/kg, po. Format: ADME, organism-based. Conditions: in vivo.
Data set [19] can be described thus: Cmax in dog at 2 mg/kg, iv or 10 mg/kg, po. Format: ADME, organism-based, Canis lupus familiaris. Conditions: in vivo.
Data set [20] is described as follows: Protein binding in human plasma at 1 uM. Format: ADME, cell-free. Conditions: read-out: PPB.
Data set [21] is described as follows: Half life in dog at 10 mg/kg, po. Format: ADME, organism-based, Canis lupus familiaris. Conditions: in vivo.
The nature of data set [22]: Oral bioavailability in Sprague-Dawley rat at 10 mg/kg. Format: ADME, organism-based. As to conditions: in vivo.
Data set [23] is described as follows: Clearance in Sprague-Dawley rat at 2 mg/kg, iv or 10 mg/kg, po. Format: ADME, organism-based. Conditions: in vivo.
The nature of data set [24]: Half life in Sprague-Dawley rat at 2 mg/kg, iv. As to conditions: in vivo. Format: ADME, organism-based.
The target of another data set is Cytochrome P450 2D6 (Homo sapiens, UniProt P10635). Description: Inhibition of CYP2D6 (unknown origin) using dextromethorphan as substrate. Format: ADME.
Sequence of Cytochrome P450 2D6 (P10635 whole entry): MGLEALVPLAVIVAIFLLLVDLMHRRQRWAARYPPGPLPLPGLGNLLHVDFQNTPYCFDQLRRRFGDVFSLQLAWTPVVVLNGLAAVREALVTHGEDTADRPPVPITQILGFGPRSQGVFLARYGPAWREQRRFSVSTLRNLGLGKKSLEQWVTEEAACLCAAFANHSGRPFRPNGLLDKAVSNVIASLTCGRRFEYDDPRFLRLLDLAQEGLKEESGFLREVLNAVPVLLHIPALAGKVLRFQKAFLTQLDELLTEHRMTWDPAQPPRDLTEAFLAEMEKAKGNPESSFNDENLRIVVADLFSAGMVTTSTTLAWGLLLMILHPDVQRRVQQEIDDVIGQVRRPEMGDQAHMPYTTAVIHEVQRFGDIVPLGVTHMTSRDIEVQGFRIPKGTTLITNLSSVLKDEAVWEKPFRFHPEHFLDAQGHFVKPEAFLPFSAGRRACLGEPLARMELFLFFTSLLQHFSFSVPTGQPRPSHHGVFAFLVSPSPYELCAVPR
A short description of data set [25]: Antagonist activity at GCGR in dog hepatocytes assessed as inhibition of glucagon-induced cAMP by LANCE TR-FRET assay. Format: cell-based, Canis lupus familiaris.
A short description of data set [26]: Half life in C57 mouse at 20 mg/kg, po. Format: ADME, organism-based. As to conditions: in vivo.
Data set [27] in a line: Half life in Sprague-Dawley rat at 10 mg/kg, po. Format: ADME, organism-based. Conditions: in vivo.
A short description of data set [28]: Clearance in C57 mouse at 5 mg/kg, iv or 20 mg/kg, po. Format: ADME, organism-based. As to conditions: in vivo.
Data set [29] deals with Canis familiaris. Description: Antidiabetic activity in Beagle dog assessed as reduction in blood glucose level at 10 mg/kg, po administered via gavage as single dose 90 mins prior to glucagon challenge measured up to 60 mins post glucagon challenge by glucometer analysis. As to conditions: Canis lupus familiaris. Format: functional, organism-based.
Data set [30] can be described thus: Volume of distribution at steady state in Sprague-Dawley rat at 2 mg/kg, iv or 10 mg/kg, po. Format: ADME, organism-based. Conditions: in vivo, read-out: Vdss.
For data set [31], the target named is T1, Cytochrome P450 3A4. Kind of data set: Inhibition of CYP3A4 (unknown origin) using midazolam as substrate. Format: ADME.

The results in this text go back to ChEMBL document CHEMBL4396971, “Discovery of potent and orally bioavailable indazole-based glucagon receptor antagonists for the treatment of type 2 diabetes” (Bioorg Med Chem Lett, 2019).

Each structure is given as a SMILES string. Active and inactive are the calls of the source.

Sequence of Cytochrome P450 2C9 (P11712 whole entry): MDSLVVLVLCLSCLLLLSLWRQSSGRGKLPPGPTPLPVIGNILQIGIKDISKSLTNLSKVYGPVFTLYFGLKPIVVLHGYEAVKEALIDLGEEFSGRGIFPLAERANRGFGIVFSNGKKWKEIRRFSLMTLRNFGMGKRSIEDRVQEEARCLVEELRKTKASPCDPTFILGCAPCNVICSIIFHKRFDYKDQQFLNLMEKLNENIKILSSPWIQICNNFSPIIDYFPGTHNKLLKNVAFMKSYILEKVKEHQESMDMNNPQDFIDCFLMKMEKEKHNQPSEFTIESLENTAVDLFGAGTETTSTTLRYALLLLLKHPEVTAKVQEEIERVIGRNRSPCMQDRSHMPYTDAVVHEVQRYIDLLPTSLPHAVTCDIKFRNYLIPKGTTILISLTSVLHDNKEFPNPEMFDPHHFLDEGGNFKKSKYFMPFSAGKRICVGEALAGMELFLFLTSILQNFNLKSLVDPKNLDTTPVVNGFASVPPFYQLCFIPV

Consider `CC(C)C[C@@H](c1ccc(C(=O)NCCC(=O)O)cc1)n1ncc2cc(-c3ccc(C(F)(F)F)cc3Cl)ccc21`, for which the remaining at 10 min, 1 µM in data set [1] came to 59%; in data set [2] it was 107%; in data set [4], 81%. Also, the Stability in data set [3] (microsomes, 10 min, 1 µM) is 121%. Further, the Ratio Ki at Glucagon receptor was 15.
Take `Cc1cc(C(F)(F)F)ccc1-c1ccc2nn([C@@H](CC(C)C)c3ccc(C(=O)NCCC(=O)O)cc3)cc2c1C`: the remaining at 10 min, 1 µM in data set [1] was 110%; in data set [2], 50%; in data set [3], 64%; in data set [4], 107%.
In the case of `COc1c(-c2ccc(C(F)(F)F)cc2Cl)ccc2c1cnn2[C@@H](CC(C)C)c1ccc(C(=O)NCCC(=O)O)cc1`, the remaining at 10 min, 1 µM in [1] is 93%; in [2], 87%; in [3] it was 64%; in data set [4], 97%.
Regarding `Cc1cc(C(F)(F)F)ccc1-c1cc2cnn([C@@H](CC(C)C)c3ccc(C(=O)NCCC(=O)O)cc3)c2cc1C`, the Vd is 0.87 L/kg in data set [5], 0.22 L/kg in [10] and 2.67 L/kg in [30]. In addition, the inhibition entry in the data set on Canis familiaris [6] and with Canis familiaris [29] was “Active” throughout. Moreover, the exposure AUC(0-t) in data set [7] was found to be 242 µM·h; in [8] it was 422 µM·h; in [14] it was 6.5 µM·h. The Cmax was determined as 18.9 µM in data set [9], 0.8 µM in [18] and 27.7 µM in [19]. Besides, the half-inhibitory concentration (IC50) on Cytochrome P450 3A4 [11], at Cytochrome P450 1A2, against Cytochrome P450 2C19, on Cytochrome P450 2C9, on Cytochrome P450 2D6 and on Cytochrome P450 3A4 [31] was above 10 µM each time. Moreover, the half-life in data set [12] is 13.3 h; in [15] it was 7.2 h; in data set [21], 16.9 h; in data set [24], 1.6 h; in data set [26], 6.5 h; in [27], 3.1 h. Moreover, the clearance in data set [13] came to 0.21 mL/min/kg; in data set [23], 26.8 mL/min/kg; in [28], 1.61 mL/min/kg. In addition, the remaining at 10 min, 1 µM in data set [1] came to 81%; in data set [2], 70%; in data set [3], 80%; in data set [4], 116%. Moreover, the bioavailability in data set [16] is 70.1%; in data set [17], 39.5%; in data set [22], 51.9%. For the same molecule, in [20], the fraction unbound at 1 µM was 0.0001. Further, the inhibition constant (Ki) in data set [25] amounted to 0.03 µM.
As to `Cc1c(-c2ccc(C(F)(F)F)cc2Cl)ccc2c1cnn2[C@@H](CC(C)C)c1ccc(C(=O)NCCC(=O)O)cc1`, the results for the remaining at 10 min, 1 µM in [1], in [3] and in data set [4] were 89%, 31% and 87%, respectively. Also, the Stability in [2] (microsomes, 10 min, 1 µM) was determined as 121%.
`Cc1cc(C(F)(F)F)ccc1-c1cc2cn([C@@H](CC(C)C)c3ccc(C(=O)NCCC(=O)O)cc3)nc2cc1C`: the Vd in data set [5] is 1.56 L/kg; in [10] it was 0.26 L/kg; in data set [30] it was 2.94 L/kg. Further, the AUC(0-t) was found to be 90.1 µM·h in [7], 468 µM·h in data set [8] and 9.2 µM·h in [14]. Also, the maximum concentration (Cmax) in [9] is 7.9 µM; in [18] it was 1.1 µM; in data set [19] it was 35 µM. In addition, the concentration for half-maximal inhibition (IC50) at Cytochrome P450 3A4 [11], against Cytochrome P450 1A2, against Cytochrome P450 2C19, against Cytochrome P450 2C9, on Cytochrome P450 2D6 and on Cytochrome P450 3A4 [31] was above 10 µM each time. The half-life in data set [12] was 21.7 h; in [15], 4.5 h; in [21], 20.2 h; in [24], 3.7 h; in data set [26], 5 h; in data set [27], 4.3 h. The clearance in data set [13] stood at 0.19 mL/min/kg; in data set [23], 12.7 mL/min/kg; in data set [28], 4.78 mL/min/kg. In addition, the remaining at 10 min, 1 µM is 57% in [1], 79% in [2], 68% in [3] and 113% in data set [4]. Also, the bioavailability was 74.4% in data set [16], 45% in data set [17] and 32.3% in [22]. Further, in data set [20], the fraction unbound at 1 µM was found to be 0.0001. In data set [25], the inhibition constant Ki was found to be 0.65 µM.

Usually AUC(0-t) stands for the area under the concentration-time curve up to a stated or last time point. Lower therefore signals less exposure. As a reminder, the Cmax is the maximum level reached in the sampled fluid or tissue. As usually defined, the IC50 is the concentration at which inhibition is half-maximal. A higher IC50 goes with weaker potency. What is called half-life is the time needed for the level to fall by half in the phase considered. A high value points to slow loss. Broadly, the bioavailability is the share of a dose that reaches the circulation, judged against a reference dose that is usually intravenous. Low values mean little systemic uptake, high ones much systemic uptake. One may read the Ki as a measure of affinity in units of concentration, obtained from inhibition or displacement.
